The record followed here is patent US9453023B2, “Substituted phenyl cycloalkyl pyrrolidine (piperidine) spirolactams and amides, preparation and therapeutic use thereof” (SANOFI, priority 2010, dated 2016).

Counter-ions that a name gives are not always drawn.

The test deals with rhesus (Macacca Mulatta) H3 receptor (Macaca mulatta, UniProt Q865E1). Put plainly: Rhesus H3 radioligand binding assay ([3H]-Methylhistamine, WGA SPA). Details: species or system rhesus monkey (Macacca Mulatta). The conditions noted are these: displacement of [3H]-Methylhistamine (2 nM) from rhesus H3 receptor membranes; Cheng-Prusoff. The protocol: (Genbank #AY231164). Stably transfected cultures were amplified in tissue culture flasks by standard tissue culture methods and induced to express rhesus H3 by exposure to 500 ng/ml tetracycline (Cellgro) for 24 hours. After induction, cells were dissociated from flasks utilizing Cell Stripper (Cellgro). Cells were centrifuged (1K×g, 5 min) and pellet frozen in an ethanol-dry ice bath to disrupt cell membranes. Frozen cell pellet was re-suspended in 5 mM HEPES (pH 7.4, Invitrogen) at 10 ml/1000 cm2 of harvested cells. The cell suspension was drawn through an 18 gauge needle (2-3×) followed by a 23 gauge needle (2-3×) to further disrupt cell membranes. The cell suspension was centrifuged (40K×g, 30 min). Cell membrane pellet was re-suspended in 5 mM HEPES (pH 7.4, Invitrogen) at a final protein concentration of 10 mg/ml. Rhesus H3 membranes were stored under liquid nitrogen prior to use in [3H]-Methylhistamine and GTPγS radioligand binding assays.
rhesus (Macacca Mulatta) H3 receptor, sequence (Q865E1 1-445): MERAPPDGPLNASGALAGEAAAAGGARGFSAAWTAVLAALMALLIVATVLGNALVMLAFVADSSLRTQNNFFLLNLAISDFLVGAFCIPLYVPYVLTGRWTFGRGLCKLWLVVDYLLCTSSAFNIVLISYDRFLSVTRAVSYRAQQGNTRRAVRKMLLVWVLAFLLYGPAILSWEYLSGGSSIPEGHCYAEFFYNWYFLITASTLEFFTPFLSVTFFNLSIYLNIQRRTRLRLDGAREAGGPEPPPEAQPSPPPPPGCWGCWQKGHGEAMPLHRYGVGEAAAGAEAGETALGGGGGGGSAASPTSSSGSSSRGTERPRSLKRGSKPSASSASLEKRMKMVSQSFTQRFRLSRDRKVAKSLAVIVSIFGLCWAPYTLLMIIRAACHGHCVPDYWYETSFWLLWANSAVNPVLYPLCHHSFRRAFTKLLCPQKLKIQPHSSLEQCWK
Rhesus H3 radioligand binding assay was performed using rhesus H3 receptor membranes (prepared as described above), [3H]-Methylhistamine (Perkin Elmer) and WGA SPA beads (wheat germ agglutinin scintillation proximity assay) beads (Amersham). The assay was performed in 96-well Opti-Plates (Packard). Each reaction contained 50 μl rhesus H3 membranes (20-30 μg total protein), 50 μl WGA SPA beads (0.1 μg) and 50 μl of 83 Ci/mmol [^3H]-Methylhistamine (final concentration 2 nM) and 50 μl of tested compound. The compounds of this invention and/or vehicle were diluted with binding buffer from 10 mM DMSO stocks. Assay plates were sealed with TopSeal (Perkin Elmer) and mixed on shaker (25° C., 1 hour). Assay plates were read on TopCount scintillation counter (Packard). Results were analyzed by Hill transformation and Ki values were determined by Cheng-Prusoff equation.
Take `C[C@H]1CCCN1C1CC[C@H](c2ccc(NC(=O)OCc3ccccc3)cc2)C1` (mixture of isomers) [Intermediate (13), {4-[(S)-3-((S)-2-Methyl-pyrrolidin-1-yl)-cyclopentyl]-phenyl}-carbamic acid benzyl ester]: the Ki (usually the equilibrium dissociation constant of an inhibitor or competing ligand from its target) came out at 37.4 nM.
As for `C[C@H]1CCCN1C1CC[C@H](c2ccc(N3CCC4(CCOCC4)C3=O)cc2)C1` (stereo partly drawn) [Example 1, 2-{4-[(S)-3-((S)-2-Methyl-pyrrolidin-1-yl)-cyclopentyl]-phenyl}-8-oxa-2-aza-spiro[4.5]decan-1-one], the figure is 11.9 nM.
Next, `C[C@H]1CCCN1C1CC[C@H](c2ccc(N3CCC4(CCCCC4)C3=O)cc2)C1` (stereo partly drawn) [Example 2, 2-{4-[(S)-3-((S)-2-Methyl-pyrrolidin-1-yl)-cyclopentyl]-phenyl}-2-aza-spiro[4.5]decan-1-one]: 12.8 nM; `CC1CCCN1C1CC[C@H](c2ccc(N3CCCC4(CCN(C(=O)OC(C)(C)C)CC4)C3=O)cc2)C1` (stereo partly shown) [Example 3, 2-{4-[3-(2-Methyl-pyrrolidin-1-yl)-cyclopentyl]-phenyl}-1-oxo-2,9-diaza-spiro[5.5]undecane-9-carboxylic acid tert-butyl ester]: 17.9 nM; `CC1CCCN1C1CC[C@H](c2ccc(N3CCC4(CCC(O)CC4)C3=O)cc2)C1` (stereo partly shown) [Example 4, 8-Hydroxy-2-{4-[3-(2-methyl-pyrrolidin-1-yl)-cyclopentyl]-phenyl}-2-aza-spiro[4.5]decan-1-one]: 75.2 nM.
Next, `CC1CCCN1C1CC[C@H](c2ccc(N3CCC4(CCN(C(=O)OC(C)(C)C)CC4)C3=O)cc2)C1` (stereo partly shown) [Example 6, 2-{4-[3-(2-Methyl-pyrrolidin-1-yl)-cyclopentyl]-phenyl}-1-oxo-2,8-diaza-spiro[4.5]decane-8-carboxylic acid tert-butyl ester]: 26.8 nM; `CC1CCCN1C1CC[C@H](c2ccc(N3CCCC4(CCCC4)C3=O)cc2)C1` (stereo partly shown) [Example 7, 7-{4-[3-(2-Methyl-pyrrolidin-1-yl)-cyclopentyl]-phenyl}-7-aza-spiro[4.5]decan-6-one]: 27.5 nM.
The compound `CC1CCCN1C1CC[C@H](c2ccc(N3CCCC4(CCNCC4)C3=O)cc2)C1` (stereo partly shown) [Example 8, 2-{4-[3-(2-Methyl-pyrrolidin-1-yl)-cyclopentyl]-phenyl}-2,9-diaza-spiro[5.5]undecan-1-one hydrochloride] had a Ki of 6.07 nM.
As for `O=C1N(c2ccc([C@H]3CC[C@H](N4CCCC4)CC3)cc2)CCC12CCOCC2` [Example 9, 2-[4-(4-Pyrrolidin-1-yl-cyclohexyl)-phenyl]-8-oxa-2-aza-spiro[4.5]decan-1-one], the figure is 112 nM.
As for `C[C@@H]1CCCN1[C@H]1CC[C@H](c2ccc(N3CCC4(CCOCC4)C3=O)cc2)CC1` [Example 10, 2-{4-[4-((R)-2-Methyl-pyrrolidin-1-yl)-cyclohexyl]-phenyl}-8-oxa-2-aza-spiro[4.5]decan-1-one], the figure is 35.3 nM; as for `C[C@H]1CCCCN1[C@H]1CC[C@H](c2ccc(N3CCC4(CCOCC4)C3=O)cc2)CC1` [Example 11, 2-{4-[4-((S)-2-Methyl-piperidin-1-yl)-cyclohexyl]-phenyl}-8-oxa-2-aza-spiro[4.5]decan-1-one], 39.4 nM; as for `C[C@H]1CCCN1[C@H]1CC[C@H](c2ccc(N3CCC4(CCOCC4)C3=O)cc2)CC1` [Example 12, 2-{4-[4-((S)-2-Methyl-pyrrolidin-1-yl)-cyclohexyl]-phenyl}-8-oxa-2-aza-spiro[4.5]decan-1-one], 6.1 nM.
As for `CC(C)(C)OC(=O)N1CCC2(CC1)CCN(c1ccc([C@H]3CC[C@H](N4CCCC4)CC3)cc1F)C2=O` [Example 13, 2-[2-Fluoro-4-(4-pyrrolidin-1-yl-cyclohexyl)-phenyl]-1-oxo-2,8-diaza-spiro[4.5]decane-8-carboxylic acid tert-butyl ester], the figure is 379 nM; as for `CC(C)(C)OC(=O)N1CCC2(CC1)CCN(c1ccc([C@H]3CC[C@H](N4CCC4)CC3)cc1F)C2=O` [Example 15, 2-[4-(4-Azetidin-1-yl-cyclohexyl)-2-fluoro-phenyl]-1-oxo-2,8-diaza-spiro[4.5]decane-8-carboxylic acid tert-butyl ester], 220 nM.
The compound `C[C@H]1CCCN1[C@H]1CC[C@H](c2ccc(N3CCC4(CCNCC4)C3=O)c(F)c2)CC1` [Example 17, 2-{2-Fluoro-4-[4-((S)-2-methyl-pyrrolidin-1-yl)-cyclohexyl]-phenyl}-2,8-diaza-spiro[4.5]decan-1-one hydrochloride] displayed an inhibitory constant (Ki) of 84.3 nM.
`C[C@@H]1CCCN1[C@H]1CC[C@H](c2ccc(N3CCC4(CCNCC4)C3=O)c(F)c2)CC1` [Example 18, 2-{2-Fluoro-4-[4-((R)-2-methyl-pyrrolidin-1-yl)-cyclohexyl]-phenyl}-2,8-diaza-spiro[4.5]decan-1-one hydrochloride] returned a Ki of 11.3 nM.
As for `O=C1N(c2ccc([C@H]3CC[C@H](N4CCC4)CC3)cc2F)CCC12CCNCC2` [Example 19, 2-[4-(4-Azetidin-1-yl-cyclohexyl)-2-fluoro-phenyl]-2,8-diaza-spiro[4.5]decan-1-one hydrochloride], the figure is 82.2 nM; as for `O=C1N(c2ccc([C@H]3CC[C@H](N4CCCC4)CC3)cc2F)CCC12CCNCC2` [Example 20, 2-[2-Fluoro-4-(4-pyrrolidin-1-yl-cyclohexyl)-phenyl]-2,8-diaza-spiro[4.5]decan-1-one hydrochloride], 137 nM; as for `C[C@H]1CCCN1C1CC=C(c2ccc(NC(=O)OCc3ccccc3)c(F)c2)CC1` (stereo partly drawn) [Example 21, {2-Fluoro-4-[4-((S)-2-methyl-pyrrolidin-1-yl)-cyclohex-1-enyl]-phenyl}-carbamic acid benzyl ester], 6.88 nM.
Next, `CC(=O)N1CCC(C(=O)Nc2ccc([C@H]3CCC(N4CCC[C@@H]4C)C3)cc2)CC1` (stereo partly drawn) [Example 22, 1-Acetyl-piperidine-4-carboxylic acid {4-[(S)-3-((S)-2-methyl-pyrrolidin-1-yl)-cyclopentyl]-phenyl}-amide]: 118 nM; `C[C@H]1CCCN1C1CC[C@H](c2ccc(NC(=O)c3cccs3)cc2)C1` (stereo partly drawn) [Example 23, Thiophene-2-carboxylic acid {4-[(S)-3-((S)-2-methyl-pyrrolidin-1-yl)-cyclopentyl]-phenyl}-amide]: 46.5 nM.
Next, `C[C@H]1CCCN1C1CC[C@H](c2ccc(NS(=O)(=O)c3ccc(F)cc3)cc2)C1` (stereo partly drawn) [Example 24, 4-Fluoro-N-{4-[(S)-3-((S)-2-methyl-pyrrolidin-1-yl)-cyclopentyl]-phenyl}-benzenesulfonamide]: 12.4 nM.
The compound `Cc1ccc(F)cc1C(=O)Nc1ccc([C@H]2CCC(N3CCC[C@@H]3C)C2)cc1` (stereo partly drawn) [Example 25, 5-Fluoro-2-methyl-N-{4-[(S)-3-((S)-2-methyl-pyrrolidin-1-yl)-cyclopentyl]-phenyl}-benzamide] returned an inhibition constant (Ki) of 45.7 nM.
As for `Cc1noc(C)c1C(=O)Nc1ccc([C@H]2CCC(N3CCC[C@@H]3C)C2)cc1` (stereo partly drawn) [Example 26, 3,5-Dimethyl-isoxazole-4-carboxylic acid {4-[(S)-3-((S)-2-methyl-pyrrolidin-1-yl)-cyclopentyl]-phenyl}-amide], the figure is 6.01 nM; as for `C[C@H]1CCCN1C1CC[C@H](c2ccc(NS(=O)(=O)C3CC3)cc2)C1` (stereo partly drawn) [Example 27, Cyclopropanesulfonic acid {4-[(S)-3-((S)-2-methyl-pyrrolidin-1-yl)-cyclopentyl]-phenyl}-amide], 34 nM.
Next, `C[C@H]1CCCN1C1CC[C@H](c2ccc(NC(=O)C3CCOCC3)cc2)C1` (stereo partly drawn) [Example 28, Tetrahydro-pyran-4-carboxylic acid {4-[(S)-3-((S)-2-methyl-pyrrolidin-1-yl)-cyclopentyl]-phenyl}-amide]: 33.7 nM; `C[C@H]1CCCN1C1CC[C@H](c2ccc(NS(=O)(=O)c3ccc(F)c(F)c3)cc2)C1` (stereo partly drawn) [Example 30, 3,4-Difluoro-N-{4-[(S)-3-((S)-2-methyl-pyrrolidin-1-yl)-cyclopentyl]-phenyl}-benzenesulfonamide]: 27.4 nM.
As for `C[C@H]1CCCN1C1CC[C@H](c2ccc(NC(=O)c3ccc(F)cc3)cc2)C1` (stereo partly drawn) [Example 31, 4-Fluoro-N-{4-[(S)-3-((S)-2-methyl-pyrrolidin-1-yl)-cyclopentyl]-phenyl}-benzamide], the figure is 34.9 nM; as for `C[C@H]1CCCN1C1CC[C@H](c2ccc(NC(=O)c3ccc(Cl)cc3)cc2)C1` (stereo partly drawn) [Example 32, 4-Chloro-N-{4-[(S)-3-((S)-2-methyl-pyrrolidin-1-yl)-cyclopentyl]-phenyl}-benzamide], 65.5 nM.
For the compound `Cc1ccccc1C(=O)Nc1ccc([C@H]2CCC(N3CCC[C@@H]3C)C2)cc1` (stereo partly drawn) [Example 33, 2-Methyl-N-{4-[(S)-3-((S)-2-methyl-pyrrolidin-1-yl)-cyclopentyl]-phenyl}-benzamide], the Ki came to 32.6 nM.
On to `Cc1ccc(C(=O)Nc2ccc([C@H]3CCC(N4CCC[C@@H]4C)C3)cc2)cc1` (stereo partly drawn) [Example 34, 4-Methyl-N-{4-[(S)-3-((S)-2-methyl-pyrrolidin-1-yl)-cyclopentyl]-phenyl}-benzamide], for which affinity was put at a Ki of 98.7 nM.
